Results taken from ChEMBL document CHEMBL3414538, “Synthesis, biological evaluation and molecular modeling studies of the PPARβ/δ antagonist CC618” (Eur J Med Chem, 2015).
The source made the active and inactive calls. The calls are words filed in the database; no cut-off is given here.

Legend:
[1] = target: T1, Peroxisome proliferator-activated receptor gamma (Homo sapiens) (UniProt P37231); assay: Antagonist activity against pSG5-Gal4-tagged human PPAR-gamma ligand binding domain expressed in COS1 cells assessed as inhibition of rosiglitazone-induced receptor activation at 20 nM to 20000 nM incubated for 19 hrs by pGL3-5XUAS-SV40 luciferase reporter gene assay; format: cell-based; settings: COS-1
T1 sequence (whole entry): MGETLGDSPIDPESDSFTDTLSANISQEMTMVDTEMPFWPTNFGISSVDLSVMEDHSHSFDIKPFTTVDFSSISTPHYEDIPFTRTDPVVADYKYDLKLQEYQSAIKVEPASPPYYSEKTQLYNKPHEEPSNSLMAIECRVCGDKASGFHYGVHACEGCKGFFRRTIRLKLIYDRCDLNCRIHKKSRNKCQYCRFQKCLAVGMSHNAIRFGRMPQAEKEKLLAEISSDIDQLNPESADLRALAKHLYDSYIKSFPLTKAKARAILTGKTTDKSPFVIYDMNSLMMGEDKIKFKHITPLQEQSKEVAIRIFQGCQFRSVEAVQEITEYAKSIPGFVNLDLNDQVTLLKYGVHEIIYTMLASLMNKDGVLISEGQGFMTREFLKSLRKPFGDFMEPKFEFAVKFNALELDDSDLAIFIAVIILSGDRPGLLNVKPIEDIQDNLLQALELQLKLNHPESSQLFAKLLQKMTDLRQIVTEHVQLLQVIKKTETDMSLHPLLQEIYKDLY

[2] = target: T2, Peroxisome proliferator-activated receptor delta (Homo sapiens, UniProt Q03181); assay: Antagonist activity against pSG5-Gal4-tagged human PPAR-beta/delta ligand binding domain expressed in COS1 cells assessed as inhibition of GW501516-induced receptor activation incubated for 19 hrs by pGL3-5XUAS-SV40 luciferase reporter gene assay; format: cell-based, COS-1
T2 sequence (Q03181 whole entry): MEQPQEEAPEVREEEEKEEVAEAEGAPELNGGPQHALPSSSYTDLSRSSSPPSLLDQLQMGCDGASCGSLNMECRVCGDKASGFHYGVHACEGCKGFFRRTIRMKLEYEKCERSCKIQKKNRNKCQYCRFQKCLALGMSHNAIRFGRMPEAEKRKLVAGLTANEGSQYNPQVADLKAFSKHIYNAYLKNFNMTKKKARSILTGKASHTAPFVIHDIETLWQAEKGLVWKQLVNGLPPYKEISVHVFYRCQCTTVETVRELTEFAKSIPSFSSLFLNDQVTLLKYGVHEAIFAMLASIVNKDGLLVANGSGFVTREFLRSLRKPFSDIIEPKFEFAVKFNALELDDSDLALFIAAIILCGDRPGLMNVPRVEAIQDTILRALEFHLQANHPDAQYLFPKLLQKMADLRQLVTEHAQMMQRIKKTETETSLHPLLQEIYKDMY

[3] = target: T3, Peroxisome proliferator-activated receptor alpha (Homo sapiens) (UniProt Q07869); assay: Antagonist activity against pSG5-Gal4-tagged human PPAR-alpha ligand binding domain expressed in COS1 cells assessed as inhibition of bezafibrate-induced receptor activation at 1 nM to 100000 nM incubated for 19 hrs by pGL3-5XUAS-SV40 luciferase reporter gene assay; format: cell-based; settings: COS-1
T3 sequence (whole entry): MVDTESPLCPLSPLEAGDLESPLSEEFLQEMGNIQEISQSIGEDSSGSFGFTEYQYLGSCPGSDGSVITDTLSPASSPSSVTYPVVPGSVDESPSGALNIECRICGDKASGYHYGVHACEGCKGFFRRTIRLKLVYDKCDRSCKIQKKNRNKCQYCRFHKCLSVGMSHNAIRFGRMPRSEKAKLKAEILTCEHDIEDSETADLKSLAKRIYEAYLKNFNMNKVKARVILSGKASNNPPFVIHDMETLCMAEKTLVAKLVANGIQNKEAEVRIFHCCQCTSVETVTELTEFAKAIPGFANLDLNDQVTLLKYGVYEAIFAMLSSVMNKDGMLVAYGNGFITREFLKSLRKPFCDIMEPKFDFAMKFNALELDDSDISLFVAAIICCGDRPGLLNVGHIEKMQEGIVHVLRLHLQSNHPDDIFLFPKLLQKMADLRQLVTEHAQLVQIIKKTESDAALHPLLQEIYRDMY

[4] = target: T2, Peroxisome proliferator-activated receptor delta; assay: Agonist activity at pSG5-Gal4-tagged human PPAR-beta/delta ligand binding domain expressed in COS1 cells assessed as receptor activation incubated for 19 hrs by pGL3-5XUAS-SV40 luciferase reporter gene assay; format: cell-based; settings: cos-1

| inhibition [1] | IC50 ([2]; read-out: IC50) [µM] | inhibition [3] | EC50 [4] | IC50 ([2]; cos-1) | SMILES |
| --- | --- | --- | --- | --- | --- |
| inactive | 10 | inactive | Not Active |  | Cc1nc(-c2ccc(C(F)(F)F)cc2)sc1C(=O)NCCS(=O)(=O)c1ccc(C(F)(F)F)cn1 |
|  | 5 |  | Not Active |  | O=C(NCCS(=O)(=O)c1ccc(C(F)(F)F)cn1)c1ccc(Cl)cc1 |
|  |  |  |  | Not Active | Cc1nc(-c2ccc(C(F)(F)F)cc2)sc1C(=O)NCCS(=O)(=O)c1ccccn1 |
